These are literature values, as cited in patent US10092188B2, “Methods and compositions for identifying subjects at risk of developing stent thrombosis” (VisEn Medical, Inc., priority 2008, dated 2018).

Consider CY™ 5.5, for which the Absorbance max (absorbance maximum of commercially available fluorochrome) is 675 nm. Where the note is “extinction coefficient of commercially available fluorochrome”, the εmax is 250,000 M^−1cm^−1.
